According to patent US20020082280A1, “Method of inhibiting neoplastic cells with benzimidazole derivatives” (priority 1998, published 2002):

| SMILES | melting point |
| --- | --- |
| Cc1nc2ccc(C(=O)NS(=O)(=O)C(F)(F)F)cc2n1Cc1ccccc1Cl.Cl | 332 to 335 °C (dec.) |
| O=C(O)c1ccc2nc(C3CC3)n(Cc3ccccc3F)c2c1 [Example 18, 6-Carboxy-2-Cyclopropyl-1-(2-Fluorobenzyl)Benzimidazole] | 224 to 229 °C |
| O=C(Nc1ccccn1)c1ccc2nc(C3CC3)n(Cc3ccccc3Cl)c2c1 [Example 28, 1-(2-Chlorobenzyl)-2-Cyclopropyl-6-(2-Pyridylcarbamoyl)Benzimidazole] | 206 to 209 °C |
| CCCc1nc2ccc(C(=O)N(C)c3ccccn3)cc2n1Cc1ccccc1Cl [Example 37, 1-(2-Chlorobenzyl)-6-[N-Methyl-N-(2-Pyridyl)carbamoyl]-2-n-Propylbenzimidazole] | 143 to 146 °C |
| CCCCc1nc2ccc(C(=O)N(C)Cc3ccccn3)cc2n1Cc1ccccc1F [Example 40, 2-n-Butyl-1-(2-Fluorobenzyl)-6-[N-Methyl-N-(2-Pyridylmethyl)Carbamoyl]Benzimidazole] | 97 to 100 °C |
| Cc1nc2ccc(C(=O)NS(=O)(=O)c3ccccc3)cc2n1Cc1ccccc1Cl [Example 111, 6-Benzenesulfonylcarbamoyl-1-(2-Chlorobenzyl)-2-Methylbenzimidazole] | 273.5 to 274.3 °C |
| Cc1nc2ccc(C=CC(=O)NS(=O)(=O)c3ccccc3)cc2n1Cc1ccccc1Cl [Example 126, N-Benzenesulfonyl-3-[1-(2-Chlorobenzyl)-2-Methylbenzimidazole-6-yl]Acrylamide] | 243.1 to 244.3 °C |
| Cc1nc2ccc(C(=O)NS(=O)(=O)c3cccc(Cl)c3)cc2n1Cc1ccccc1Cl [Example 156, 6-(3-Chlorobenzenesulfonylcarbamoyl)-1-(2-Chlorobenzyl)-2-Methylbenzimidazole] | 254.5 to 257.5 °C (dec.) |
| COc1ccc(S(=O)(=O)NC(=O)c2ccc3nc(C)n(Cc4ccccc4Cl)c3c2)cc1 [Example 162, 1-(2-Chlorobenzyl)-6-(4-Methoxybenzenesulfonylcarbamoyl)-2-Methylbenzimidazole] | 271 to 274 °C |
| Cc1nc2ccc(C(=O)NS(=O)(=O)Cc3ccccc3)cc2n1Cc1ccccc1Cl [Example 163, 1-(2-Chlorobenzyl)-2-Methyl-6-(α-Toluenesulfonylcarbamoyl)Benzimidazole] | 193 to 196 °C |
| Cc1ccc(C)c(S(=O)(=O)NC(=O)c2ccc3nc(C)n(Cc4ccccc4Cl)c3c2)c1 [Example 164, 1-(2-Chlorobenzyl)-6-(2,5-Dimethylbenzenesulfonylcarbamoyl)-2-Methylbenzimidazole] | 266.5 to 267.5 °C |
| Cc1nc2ccc(C(=O)NS(=O)(=O)c3ccc([N+](=O)[O-])cc3)cc2n1Cc1ccccc1Cl [Example 165, 1-(2-Chlorobenzyl)-2-Methyl-6-(4-Nitrobenzenesulfonylcarbamoyl)Benzimidazole] | 330 to 332 °C |
| Cc1nc2ccc(C(=O)NS(=O)(=O)c3ccc(C(F)(F)F)cc3)cc2n1Cc1ccccc1Cl [Example 166, 1-(2-Chlorobenzyl)-2-Methyl-6-[4(Trifluoromethyl)Benzenesulfonylcarbamoyl]Benzimidazole] | 288 to 292 °C |
| Cc1nc2ccc(C(=O)NS(=O)(=O)c3ccccc3Cl)cc2n1Cc1ccccc1Cl.N [Example 167, 6-(2-Chlorobenzenesulfonylcarbamoyl)-1-(2-Chlorobenzyl)-2-Methylbenzimidazole Ammonium Salt] | 264 to 267 °C |
| Nc1nc2ccc(C(=O)NS(=O)(=O)c3ccccc3)cc2n1Cc1ccc(-c2ccccc2)cc1 [Example 172, 2-Amino-6-Benzenesulfonylcarbamoyl-1-(Biphenyl-4-ylmethyl)Benzimidazole] | 352.5 to 355 °C |
| Cc1nc2ccc(CCC(=O)NS(=O)(=O)c3ccccc3)cc2n1Cc1ccccc1Cl [Example 200, N-Benzenesulfonyl-3-[1-(2-chlorobenzyl)-2-methylbenzimidazole-6-yl]propionamide] | 229.8 to 233 °C |
| CCCCS(=O)(=O)NC(=O)c1ccc2nc(C)n(Cc3ccc(C(=O)c4ccccc4)cc3)c2c1 [Example 300, 1-[(4-Benzoyl)benzyl]-6-(1-Butanesulfonylcarbamoyl)-2-Methylbenzimidazole] | 111 to 112.4 °C |
